Data taken from patent US6649364B1, “Anti-apoptotic compositions and methods using same” (The Regents of the University of California, priority 1995, dated 2003).
Where a SMILES comes first, the peptide text is derived from it. [ ]: non-standard residue; d: D form. The star is where a group is joined. Sta = CC(C)C[C@H](N)[C@@H](O)CC(=O)O; Isovaleryl = CC(C)CC(=O)*

biological target: T1, human recombinant ICE (Homo sapiens, UniProt P29466); test: ICE cleavage of actin in PC12 cell extracts, with protease inhibitors (SDS-PAGE, immunoblot); type: biochemical; details: not given
T1 construct: highly purified human recombinant ICE (p20/p10) (Merck, Wayne, N.J.); purchased Merck, Wayne, N.J
T1 sequence (P29466 120-297 limits assumed): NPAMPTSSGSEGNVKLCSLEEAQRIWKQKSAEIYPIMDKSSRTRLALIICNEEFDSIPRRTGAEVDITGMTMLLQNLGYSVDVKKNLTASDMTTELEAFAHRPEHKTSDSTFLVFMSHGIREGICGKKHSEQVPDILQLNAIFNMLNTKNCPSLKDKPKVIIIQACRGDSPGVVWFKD
T1 sequence (P29466 317-404 limits assumed): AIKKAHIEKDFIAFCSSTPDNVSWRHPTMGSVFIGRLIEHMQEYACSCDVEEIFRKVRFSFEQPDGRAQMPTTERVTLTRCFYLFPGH
Experimental: Cells were washed with ice-cold PBS twice and were extracted with Triton X-100® detergent (1%) in Hepes buffer (10 mM, pH=7.5). Supernatants were treated with ICE as follows: 50 μg of cellular protein extracted from semi-confluent cells grown in serum-containing media was incubated with 50 ng of highly purified human recombinant ICE (p20/p10) (Merck, Wayne, N.J.) at 37° C. for 2 hours in the presence of 10 mM dithiothreitol (DTT).
In order to determine whether any of the cellular proteins of relatively high abundance serve as ICE substrates, extracts prepared from PC12 pheochromocytoma cells (29), CSM14.1 cells (conditionally immortalized mesencephalic neuronal cells) (30, 31), and Rat-1 cells (25) were treated with highly purified human recombinant ICE under various conditions. The cleavage products were then analyzed by SDS-polyacrylamide gel electrophoresis.
Control was incubated in the absence of ICE.

Row | Molecule | inhibition of the generation of actin fragments by ICE
1 | O=C(O)CI [iodoacetate] | completely inhibited

same assay, conditions: cell extracts treated with ICE, 37° C., 2 hours

Row | Molecule | inhibition of the generation of actin fragments by ICE
2 | CC(C)C[C@H](NC(=O)[C@H]1O[C@@H]1C(=O)O)C(=O)NCCCCN=C(N)N [E-64] | not
3 | CC(=O)N[C@@H](CC(C)C)C(=O)N[C@@H](CC(C)C)C(=O)N[C@H](C=O)CCCNC(=N)N [leupeptin] | not
4 | CC(C)CC(=O)N[C@H](C(=O)N[C@H](C(=O)N[C@@H](CC(C)C)[C@@H](O)CC(=O)N[C@@H](C)C(=O)N[C@@H](CC(C)C)[C@@H](O)CC(=O)O)C(C)C)C(C)C [pepstain] (Isovaleryl-VV[Sta]A[Sta]-OH) | not
5 | O=S(=O)(F)Cc1ccccc1 [phenylmethylsulfonyl fluoride] | not
6 | Ac-Tyr-Val-Ala-Asp-CHO | completely inhibited
7 | human α2-macroglobulin: granzyme B inhibitor, shown not to inhibit ICE | not
